Laboratory results from ChEMBL document CHEMBL1150948, “Tolyporphins J and K, two further porphinoid metabolites from the cyanobacterium Tolypothrix nodosa” (J Nat Prod, 1998).
Active and inactive are the calls of the source. The rule behind the calls is not given here.

Columns and labels:
[1] = test system: NCI/ADR-RES; assay: Cytotoxicity against human MCF7/ADR cells for 60 mins by trypan blue staining; assay type: functional, cell-based
[2] = biological target: ATP-dependent translocase ABCB1 (Homo sapiens, UniProt P08183); assay: Inhibition of P-glycoprotein in human MCF7/ADR cells assessed as increase in [3H]vinblastine accumulation; assay type: cell-based; details: nci/adr-res
[3] = test system: NCI/ADR-RES; assay: Reversal of P-glycoprotein-mediated multidrug resistance in human MCF7/ADR cells assessed as sensitization to actinomycin D after 48 hrs by SRB assay; assay type: cell-based

Chain of ATP-dependent translocase ABCB1 (P08183 whole entry): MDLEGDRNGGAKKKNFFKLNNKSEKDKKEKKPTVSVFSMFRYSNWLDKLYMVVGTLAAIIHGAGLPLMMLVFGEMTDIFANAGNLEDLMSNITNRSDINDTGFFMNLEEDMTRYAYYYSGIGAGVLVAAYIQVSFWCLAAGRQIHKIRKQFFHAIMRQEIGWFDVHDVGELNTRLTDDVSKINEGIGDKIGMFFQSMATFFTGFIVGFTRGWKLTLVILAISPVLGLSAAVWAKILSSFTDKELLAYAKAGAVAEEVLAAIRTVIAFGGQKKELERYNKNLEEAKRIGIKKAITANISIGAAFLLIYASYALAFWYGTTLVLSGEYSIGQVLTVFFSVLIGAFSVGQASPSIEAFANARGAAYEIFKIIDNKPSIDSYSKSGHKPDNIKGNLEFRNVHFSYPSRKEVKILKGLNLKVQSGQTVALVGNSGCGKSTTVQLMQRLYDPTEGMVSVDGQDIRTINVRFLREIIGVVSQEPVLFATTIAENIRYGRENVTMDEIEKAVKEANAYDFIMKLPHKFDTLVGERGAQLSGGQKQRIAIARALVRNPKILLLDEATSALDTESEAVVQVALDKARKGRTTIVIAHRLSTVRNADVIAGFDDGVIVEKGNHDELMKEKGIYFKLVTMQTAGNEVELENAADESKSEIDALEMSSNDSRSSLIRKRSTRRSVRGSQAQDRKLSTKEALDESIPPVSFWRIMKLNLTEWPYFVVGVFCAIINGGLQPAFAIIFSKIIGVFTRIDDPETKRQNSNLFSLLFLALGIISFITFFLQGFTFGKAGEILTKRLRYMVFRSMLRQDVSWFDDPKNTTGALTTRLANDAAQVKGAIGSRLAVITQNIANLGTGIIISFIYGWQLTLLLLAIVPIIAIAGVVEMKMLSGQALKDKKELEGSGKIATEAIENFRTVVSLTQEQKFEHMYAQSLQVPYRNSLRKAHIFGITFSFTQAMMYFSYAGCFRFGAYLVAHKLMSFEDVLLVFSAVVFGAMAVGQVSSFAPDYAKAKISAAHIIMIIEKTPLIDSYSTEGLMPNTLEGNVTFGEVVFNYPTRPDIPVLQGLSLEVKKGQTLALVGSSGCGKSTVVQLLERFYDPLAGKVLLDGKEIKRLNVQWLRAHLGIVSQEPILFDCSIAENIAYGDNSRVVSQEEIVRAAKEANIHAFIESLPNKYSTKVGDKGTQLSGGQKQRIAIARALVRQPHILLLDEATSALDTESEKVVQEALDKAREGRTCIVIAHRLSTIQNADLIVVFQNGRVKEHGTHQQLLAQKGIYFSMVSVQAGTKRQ

| Compound | Activity [1] | Activity [2] | Activity [3] |
| --- | --- | --- | --- |
| CC(=O)O[C@@H]1C[C@@H](O)[C@@H](C)OC1[C@]1(C)C(=O)c2cc3cc(C)c(cc4nc(cc5[nH]c(cc1n2)cc5C)C(=O)[C@@]4(C)C1O[C@H](C)[C@H](O)C[C@H]1OC(C)=O)[nH]3 (stereo partly specified) [TOLYPORPHIN A] | inactive | Dose-dependent effect | Active |
| Cc1cc2cc3nc(cc4cc(C)c(cc5nc(cc1[nH]2)C(=O)C5(C)O)[nH]4)C(=O)C3(C)O (stereo unspecified) [TOLYPORPHIN J] | inactive | Dose-dependent effect | Active |
